According to ChEMBL document CHEMBL1201862, “PubChem BioAssay data set” (2004):
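Protocol summary: plate cells (96-well), add compound at 5 concentrations, incubate 48 h, interpolate endpoints linearly. At the GI50, growth is halved.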 Activity calls are given as the source filed them. Rule as the data show it: active = GI50 up to about 1.1 µM and inactive = higher.

Experiments:
Assay in all cases: inhibition of tumour cell growth, NCI panel, 48 h
SK-MEL-28 = system: SK-MEL-28
SK-MEL-2 = system: SK-MEL-2
Hs-578T = system: Hs-578T
SNB-75 = system: SNB-75
UACC-62 = system: UACC-62
U-251 = system: U-251
HL-60 = system: HL-60
CCRF-CEM = system: CCRF-CEM
HCT-15 = system: HCT-15
M14 = system: M14
SF-539 = system: SF-539
NCI/ADR-RES = system: NCI/ADR-RES
MCF7 = system: MCF7
NCI-H460 = system: NCI-H460
UO-31 = system: UO-31
HOP-62 = system: HOP-62
TK-10 = system: TK-10
HCC 2998 = system: HCC 2998
OVCAR-8 = system: OVCAR-8
OVCAR-4 = system: OVCAR-4
RPMI-8226 = system: RPMI-8226
HCT-116 = system: HCT-116
EKVX = system: EKVX
A498 = system: A498
NCI-H226 = system: NCI-H226
HT-29 = system: HT-29
A549 = system: A549
LOX IMVI = system: LOX IMVI
SF-268 = system: SF-268
UACC-257 = system: UACC-257
MDA-MB-231 = system: MDA-MB-231
ACHN = system: ACHN
IGROV-1 = system: IGROV-1
SNB-19 = system: SNB-19
DU-145 = system: DU-145
K562 = system: K562
786-0 = system: 786-0
RXF 393 = system: RXF 393
MDA-MB-435 = system: MDA-MB-435
NCI-H23 = system: NCI-H23
OVCAR-3 = system: OVCAR-3
SR = system: SR
BT-549 = system: BT-549
COLO 205 = system: COLO 205
MOLT-4 = system: MOLT-4
PC-3 = system: PC-3
SF-295 = system: SF-295
SW-620 = system: SW-620
KM12 = system: KM12
CAKI-1 = system: CAKI-1
T47D = system: T47D
SN12C = system: SN12C
OVCAR-5 = system: OVCAR-5
NCI-H522 = system: NCI-H522
SK-MEL-5 = system: SK-MEL-5
Malme-3M = system: Malme-3M
SK-OV-3 = system: SK-OV-3

**Q.** What does the source list for `N#Cc1c(=O)c2ccccc2n2c1[nH]c1ccccc12`?
**A.** GI50 (SK-MEL-28): 52.2 µM (inactive); GI50 (SK-MEL-2): 47.3 µM (inactive); GI50 (Hs-578T): 20.9 µM (inactive); GI50 (SNB-75): 43.1 µM (inactive); GI50 (UACC-62): 29.4 µM (inactive); GI50 (U-251): 34.1 µM (inactive); GI50 (HL-60): 18.7 µM (inactive); GI50 (CCRF-CEM): 17.8 µM (inactive); GI50 (HCT-15): 17.6 µM; GI50 (M14): 57.5 µM (inactive); GI50 (SF-539): 32.1 µM (inactive); GI50 (NCI/ADR-RES): 15.3 µM (inactive); GI50 (MCF7): 56.2 µM (inactive); GI50 (NCI-H460): 37 µM (inactive); GI50 (UO-31): 33.7 µM (inactive); GI50 (HOP-62): > 100 µM (inactive); GI50 (TK-10): 49.5 µM (inactive); GI50 (HCC 2998): 58.3 µM (inactive); GI50 (OVCAR-8): 27.6 µM (inactive); GI50 (OVCAR-4): 24.1 µM (inactive); GI50 (RPMI-8226): 19.2 µM (inactive); GI50 (HCT-116): 30.5 µM (inactive); GI50 (EKVX): 25 µM (inactive); GI50 (A498): 25.1 µM (inactive); GI50 (NCI-H226): 34.9 µM (inactive); GI50 (HT-29): 30.5 µM (inactive); GI50 (A549): 58.1 µM (inactive); GI50 (LOX IMVI): 20.6 µM (inactive); GI50 (SF-268): 31.5 µM (inactive); GI50 (UACC-257): 86.1 µM (inactive); GI50 (MDA-MB-231): 54.6 µM (inactive); GI50 (ACHN): 58.6 µM (inactive); GI50 (IGROV-1): 16.1 µM (inactive); GI50 (SNB-19): 42.5 µM (inactive); GI50 (DU-145): 33.9 µM (inactive); GI50 (K562): 21.3 µM (inactive); GI50 (786-0): 41 µM (inactive); GI50 (RXF 393): 4.44 µM (inactive); GI50 (MDA-MB-435): 54 µM (inactive); GI50 (NCI-H23): 55.2 µM (inactive); GI50 (OVCAR-3): 38.6 µM (inactive); GI50 (SR): 0.618 µM (active); GI50 (BT-549): 58.3 µM (inactive); GI50 (COLO 205): 43.1 µM (inactive); GI50 (MOLT-4): 12.4 µM (inactive); GI50 (PC-3): 29 µM (inactive); GI50 (SF-295): 32.8 µM (inactive); GI50 (SW-620): 48.5 µM (inactive); GI50 (KM12): 27.4 µM (inactive); GI50 (CAKI-1): 35.2 µM (inactive); GI50 (T47D): 22.7 µM (inactive); GI50 (SN12C): 32.3 µM (inactive); GI50 (OVCAR-5): > 100 µM (inactive)

**Q.** Which results are given for `CNc1ccccc1S(=O)(=O)c1ccccc1[N+](=O)[O-]`?
**A.** GI50 (SK-MEL-28): 91 µM (inactive); GI50 (SK-MEL-2): 88.3 µM (inactive); GI50 (Hs-578T): 40.2 µM (inactive); GI50 (SNB-75): 52.4 µM (inactive); GI50 (UACC-62): 48.8 µM (inactive); GI50 (U-251): 69.7 µM (inactive); GI50 (HL-60): 40 µM (inactive); GI50 (CCRF-CEM): 43.5 µM (inactive); GI50 (HCT-15): 46.3 µM; GI50 (M14): 52.7 µM (inactive); GI50 (SF-539): > 100 µM (inactive); GI50 (NCI/ADR-RES): 45.5 µM (inactive); GI50 (MCF7): 85.1 µM (inactive); GI50 (NCI-H460): 58.7 µM (inactive); GI50 (UO-31): 43.6 µM (inactive); GI50 (HOP-62): > 100 µM (inactive); GI50 (TK-10): > 100 µM (inactive); GI50 (HCC 2998): > 100 µM (inactive); GI50 (OVCAR-8): > 10 µM (inactive); GI50 (OVCAR-4): 27.2 µM (inactive); GI50 (RPMI-8226): > 100 µM (inactive); GI50 (HCT-116): 66.5 µM (inactive); GI50 (NCI-H522): 26 µM (inactive); GI50 (EKVX): > 100 µM (inactive); GI50 (A498): > 100 µM (inactive); GI50 (NCI-H226): 65.6 µM (inactive); GI50 (HT-29): 93.8 µM (inactive); GI50 (SK-MEL-5): 23 µM (inactive); GI50 (A549): 77.3 µM (inactive); GI50 (LOX IMVI): 53 µM (inactive); GI50 (SF-268): > 100 µM (inactive); GI50 (MDA-MB-231): > 100 µM (inactive); GI50 (ACHN): 56.6 µM (inactive); GI50 (IGROV-1): > 100 µM (inactive); GI50 (Malme-3M): 99.8 µM (inactive); GI50 (SNB-19): 74 µM (inactive); GI50 (DU-145): > 100 µM (inactive); GI50 (K562): 42.6 µM (inactive); GI50 (786-0): > 100 µM (inactive); GI50 (RXF 393): > 100 µM (inactive); GI50 (MDA-MB-435): 38.2 µM (inactive); GI50 (NCI-H23): 44.6 µM (inactive); GI50 (OVCAR-3): 68.4 µM (inactive); GI50 (SR): > 100 µM (inactive); GI50 (BT-549): 23.6 µM (inactive); GI50 (COLO 205): > 100 µM (inactive); GI50 (MOLT-4): 30.8 µM (inactive); GI50 (PC-3): 52.4 µM (inactive); GI50 (SK-OV-3): > 100 µM (inactive); GI50 (SF-295): 80.2 µM (inactive); GI50 (SW-620): > 100 µM (inactive); GI50 (KM12): > 100 µM (inactive); GI50 (T47D): 71.1 µM (inactive); GI50 (SN12C): 92.7 µM (inactive); GI50 (OVCAR-5): > 100 µM (inactive)
